Our source for the Activity values is patent publication US7795290B2 (Genentech, Inc., priority 2004, dated 2010).

The target of this assay is T1, AKT1 (Homo sapiens, UniProt P31749).
T1 construct: purchased Upstate 14-276
T1 sequence (P31749 whole entry): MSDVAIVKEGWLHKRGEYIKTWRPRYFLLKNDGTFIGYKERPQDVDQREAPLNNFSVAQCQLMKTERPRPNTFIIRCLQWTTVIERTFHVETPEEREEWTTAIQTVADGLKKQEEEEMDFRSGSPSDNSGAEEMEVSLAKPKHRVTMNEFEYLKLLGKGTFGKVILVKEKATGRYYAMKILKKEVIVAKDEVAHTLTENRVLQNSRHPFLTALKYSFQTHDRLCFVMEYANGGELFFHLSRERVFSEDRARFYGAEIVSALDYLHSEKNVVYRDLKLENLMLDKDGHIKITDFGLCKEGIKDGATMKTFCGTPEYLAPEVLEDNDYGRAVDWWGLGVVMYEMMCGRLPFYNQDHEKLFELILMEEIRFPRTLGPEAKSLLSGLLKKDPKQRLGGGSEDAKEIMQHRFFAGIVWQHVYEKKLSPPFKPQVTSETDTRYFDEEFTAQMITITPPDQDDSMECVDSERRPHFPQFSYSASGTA
The assay can be described thus: HTS ATP-utilizing enzyme assay, off-chip mobility-shift (Caliper HTS 250). It counts as biochemical. The note with it: kinase named = inhibitory activity/selectivity; test compound 10 μM; active = greater than three-sigma from mean. The procedure, abridged: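 AKT1 activity was measured by off-chip mobility shift (Caliper HTS 250) as the ratio of peptide substrate to phosphorylated product. Test compound was at 10 μM, with 2.5 h incubation at 20–22° C. EDTA wells served as 100% control and DMSO wells as 0%. Hits were called at three-sigma limits.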
For the molecule `CC(=O)NC1CCN(C(=O)CCCN(C(=O)c2cccs2)c2nc(-c3cc4ccccc4o3)cs2)C1` (centres unmarked) [N-(4-(3-acetamidopyrrolidin-1-yl)-4-oxobutyl)-N-(4-(benzofuran-2-yl)thiazol-2-yl)thiophene-2-carboxamide], the Activity entry is recorded as “AKT1”.

In the case of `O=C(c1cccs1)N(CCCN1CCOCC1)c1nc(-c2cccc(Br)c2)cs1` [N-(4-(3-bromophenyl)thiazol-2-yl)-N-(3-morpholinopropyl)thiophene-2-carboxamide], the Activity result is recorded as “AKT1”. In the case of `O=C(c1cccs1)N(CCCN1CCOCC1)c1nc(-c2cccc(Cl)c2)cs1` [N-(4-(3-chlorophenyl)thiazol-2-yl)-N-(3-morpholinopropyl)thiophene-2-carboxamide], the Activity entry is on record as “AKT1”.

Take `O=C(c1cccs1)N(CCCN1CCOCC1)c1nc(-c2cccc(F)c2)cs1` [N-(4-(3-fluorophenyl)thiazol-2-yl)-N-(3-morpholinopropyl)thiophene-2-carboxamide]: the Activity entry is “AKT1”.

As to `COc1cccc(-c2csc(N(CCCN3CCOCC3)C(=O)c3cccs3)n2)c1` [N-(4-(3-methoxyphenyl)thiazol-2-yl)-N-(3-morpholinopropyl)thiophene-2-carboxamide], the Activity result was “AKT1”. `Cc1c(-c2csc(N(CCCN3CCOCC3)C(=O)c3cccs3)n2)sc2ccccc12` [N-(4-(3-methylbenzo[b]thiophen-2-yl)thiazol-2-yl)-N-(3-morpholinopropyl)thiophene-2-carboxamide]: the Activity result is given as “AKT1”. With `CN(C)CCOc1ccc(-c2csc(N(CCCN3CCOCC3)C(=O)c3cccs3)n2)cc1` [N-(4-(4-(2-(dimethylamino)ethoxy)phenyl)thiazol-2-yl)-N-(3-morpholinopropyl)thiophene-2-carboxamide], the Activity result is “AKT1”. As for `CN(C)CCNC(=O)c1ccc(-c2csc(N(CCCN3CCOCC3)C(=O)c3cccs3)n2)cc1` [N-(4-(4-(2-(dimethylamino)ethylcarbamoyl)phenyl)thiazol-2-yl)-N-(3-morpholinopropyl)thiophene-2-carboxamide], the Activity entry was “AKT1”. The value for `O=C(NCCO)c1ccc(-c2csc(N(CCCN3CCOCC3)C(=O)c3cccs3)n2)cc1` [N-(4-(4-(2-hydroxyethylcarbamoyl)phenyl)thiazol-2-yl)-N-(3-morpholinopropyl)thiophene-2-carboxamide] was “AKT1”. On to `O=C(NCCN1CCOCC1)c1ccc(-c2csc(N(CCCN3CCOCC3)C(=O)c3cccs3)n2)cc1` [N-(4-(4-(2-morpholinoethylcarbamoyl)phenyl)thiazol-2-yl)-N-(3-morpholinopropyl)thiophene-2-carboxamide], for which the Activity result is “AKT1”. In the case of `CN(C)CCCOc1ccc(-c2csc(N(CCCN3CCOCC3)C(=O)c3cccs3)n2)cc1` [N-(4-(4-(3-(dimethylamino)propoxy)phenyl)thiazol-2-yl)-N-(3-morpholinopropyl)thiophene-2-carboxamide], the Activity entry is listed as “AKT1”.

In the case of `CN(C)CCCNC(=O)c1ccc(-c2csc(N(CCCN3CCOCC3)C(=O)c3cccs3)n2)cc1` [N-(4-(4-(3-(dimethylamino)propylcarbamoyl)phenyl)thiazol-2-yl)-N-(3-morpholinopropyl)thiophene-2-carboxamide], the Activity result is “AKT1”. As for `O=C(NCCCO)c1ccc(-c2csc(N(CCCN3CCOCC3)C(=O)c3cccs3)n2)cc1` [N-(4-(4-(3-hydroxypropylcarbamoyl)phenyl)thiazol-2-yl)-N-(3-morpholinopropyl)thiophene-2-carboxamide], the Activity result is on record as “AKT1”. With `CN1CCN(C(=O)c2ccc(-c3csc(N(CCCN4CCOCC4)C(=O)c4cccs4)n3)cc2)CC1` [N-(4-(4-(4-methylpiperazine-1-carbonyl)phenyl)thiazol-2-yl)-N-(3-morpholinopropyl)thiophene-2-carboxamide] the entry was “AKT1”.

As to `O=C(c1cccs1)N(CCCN1CCOCC1)c1nc(-c2ccc(OC(F)F)cc2)cs1` [N-(4-(4-(difluoromethoxy)phenyl)thiazol-2-yl)-N-(3-morpholinopropyl)thiophene-2-carboxamide], the Activity entry is reported as “AKT1”.

As to `CN(C)C(=O)c1ccc(-c2csc(N(CCCN3CCOCC3)C(=O)c3cccs3)n2)cc1` [N-(4-(4-(dimethylcarbamoyl)phenyl)thiazol-2-yl)-N-(3-morpholinopropyl)thiophene-2-carboxamide], the Activity entry is “AKT1”.

For the molecule `CNC(=O)c1ccc(-c2csc(N(CCCN3CCOCC3)C(=O)c3cccs3)n2)cc1` [N-(4-(4-(methylcarbamoyl)phenyl)thiazol-2-yl)-N-(3-morpholinopropyl)thiophene-2-carboxamide], the Activity entry is on record as “AKT1”. As to `CS(=O)(=O)c1ccc(-c2csc(N(CCCN3CCOCC3)C(=O)c3cccs3)n2)cc1` [N-(4-(4-(methylsulfonyl)phenyl)thiazol-2-yl)-N-(3-morpholinopropyl)thiophene-2-carboxamide], the Activity result is listed as “AKT1”. Consider `O=C(c1ccc(-c2csc(N(CCCN3CCOCC3)C(=O)c3cccs3)n2)cc1)N1CCOCC1` [N-(4-(4-(morpholine-4-carbonyl)phenyl)thiazol-2-yl)-N-(3-morpholinopropyl)thiophene-2-carboxamide], for which the Activity entry is “AKT1”. Regarding `NC(=O)c1ccc(-c2csc(N(CCCN3CCOCC3)C(=O)c3cccs3)n2)cc1` [N-(4-(4-carbamoylphenyl)thiazol-2-yl)-N-(3-morpholinopropyl)thiophene-2-carboxamide], the Activity result is “AKT1”. For `Cc1cc(-c2csc(N(CCCN3CCOCC3)C(=O)c3cccs3)n2)ccc1Cl` [N-(4-(4-chloro-3-methylphenyl)thiazol-2-yl)-N-(3-morpholinopropyl)thiophene-2-carboxamide], the Activity entry is listed as “AKT1”. For `O=C(c1cccs1)N(CCCN1CCOCC1)c1nc(-c2ccc(Cl)c([N+](=O)[O-])c2)cs1` [N-(4-(4-chloro-3-nitrophenyl)thiazol-2-yl)-N-(3-morpholinopropyl)thiophene-2-carboxamide], the Activity result was “AKT1”. In the case of `O=C(c1cccs1)N(CCCN1CCOCC1)c1nc(-c2ccc(Cl)cc2)cs1` [N-(4-(4-chlorophenyl)thiazol-2-yl)-N-(3-morpholinopropyl)thiophene-2-carboxamide], the Activity result is “AKT1”. Consider `N#Cc1ccc(-c2csc(N(CCCN3CCOCC3)C(=O)c3cccs3)n2)cc1` [N-(4-(4-cyanophenyl)thiazol-2-yl)-N-(3-morpholinopropyl)thiophene-2-carboxamide], for which the Activity entry is “AKT1”. Regarding `O=C(c1cccs1)N(CCCN1CCOCC1)c1nc(-c2ccc(F)cc2)cs1` [N-(4-(4-fluorophenyl)thiazol-2-yl)-N-(3-morpholinopropyl)thiophene-2-carboxamide], the Activity result is “AKT1”.

In the case of `COc1ccc(-c2csc(N(CCCN3CCOCC3)C(=O)c3nccn3C)n2)cc1` [N-(4-(4-methoxyphenyl)thiazol-2-yl)-1-methyl-N-(3-morpholinopropyl)-1H-imidazole-2-carboxamide], the Activity entry is recorded as “AKT1”. With `COc1ccc(-c2csc(N(CCCN3CCOCC3)C(=O)c3cccn3C)n2)cc1` [N-(4-(4-methoxyphenyl)thiazol-2-yl)-1-methyl-N-(3-morpholinopropyl)-1H-pyrrole-2-carboxamide] the entry was “AKT1”; with `COc1ccc(-c2csc(N(CCCN3CCOCC3)C(=O)c3cccc(C)c3)n2)cc1` [N-(4-(4-methoxyphenyl)thiazol-2-yl)-3-methyl-N-(3-morpholinopropyl)benzamide], “AKT1”. In the case of `COc1ccc(-c2csc(N(CCCN3CCOCC3)C(=O)c3occc3C)n2)cc1` [N-(4-(4-methoxyphenyl)thiazol-2-yl)-3-methyl-N-(3-morpholinopropyl)furan-2-carboxamide], the Activity result is listed as “AKT1”. In the case of `COc1ccc(-c2csc(N(CCCN3CCOCC3)C(=O)c3sccc3C)n2)cc1` [N-(4-(4-methoxyphenyl)thiazol-2-yl)-3-methyl-N-(3-morpholinopropyl)thiophene-2-carboxamide], the Activity result was “AKT1”. Turning to `COc1ccc(-c2csc(N(CCCN3CCCCC3)C(=O)c3cccs3)n2)cc1` [N-(4-(4-methoxyphenyl)thiazol-2-yl)-N-(3-(piperidin-1-yl)propyl)thiophene-2-carboxamide], the Activity entry is reported as “AKT1”.

For `COc1ccc(-c2csc(N(CCCN3CCCC3)C(=O)c3ccccc3)n2)cc1` [N-(4-(4-methoxyphenyl)thiazol-2-yl)-N-(3-(pyrrolidin-1-yl)propyl)benzamide], the Activity result is listed as “AKT1”.

Turning to `COc1ccc(-c2csc(N(CCCN3CCCC3)C(=O)c3ccco3)n2)cc1` [N-(4-(4-methoxyphenyl)thiazol-2-yl)-N-(3-(pyrrolidin-1-yl)propyl)furan-2-carboxamide], the Activity entry is “AKT1”. On to `COc1ccc(-c2csc(N(CCCN3CCCC3)C(=O)c3cccs3)n2)cc1` [N-(4-(4-methoxyphenyl)thiazol-2-yl)-N-(3-(pyrrolidin-1-yl)propyl)thiophene-2-carboxamide], for which the Activity result is on record as “AKT1”.

On to `COc1ccc(-c2csc(N(CCCN3CCOCC3)C(=O)c3ccccc3)n2)cc1` [N-(4-(4-methoxyphenyl)thiazol-2-yl)-N-(3-morpholinopropyl)benzamide], for which the Activity result is recorded as “AKT1”.

Consider `COc1ccc(-c2csc(N(CCCN3CCOCC3)C(=O)C3CCCCC3)n2)cc1` [N-(4-(4-methoxyphenyl)thiazol-2-yl)-N-(3-morpholinopropyl)cyclohexanecarboxamide], for which the Activity entry is on record as “AKT1”. Take `COc1ccc(-c2csc(N(CCCN3CCOCC3)C(=O)C3=CCCC3)n2)cc1` [N-(4-(4-methoxyphenyl)thiazol-2-yl)-N-(3-morpholinopropyl)cyclopent-1-enecarboxamide]: the Activity result is on record as “AKT1”. With `COc1ccc(-c2csc(N(CCCN3CCOCC3)C(=O)c3cccs3)n2)cc1` [N-(4-(4-methoxyphenyl)thiazol-2-yl)-N-(3-morpholinopropyl)thiophene-2-carboxamide] the entry was “AKT1”.
